Values quoted from earlier work in US20050176827A1, “Compositions and methods for glycogen synthesis” (priority 2002, published 2005).

System: pancreatic beta cell
Conditions: micromolar concentrations; direct effect on pancreatic beta cell, glucose dependent

## CC(O)C(C)C(N)C(=O)O (stereo not shown) [4-hydroxyisoleucine]
  effect on glucose-induced insulin secretion: stimulate glucose-induced insulin secretion
